According to patent publication US20080176810A1, “Use of 3, 4', 5-Trihydroxy-Stilbene-3-Beta-D-glucoside in Prepartion of Medicines For Treating and/or Preventing Ischemic Heart Disease” (SHENZHEN NEPTUNUS PHARMACEUTICAL CO., LTD., priority 2004, published 2008):

System: chronic myocardial ischemia
Assay: Chronic myocardial ischemia in rats, intragastric administration
Assay type: in vivo, SD rats
Settings: TSG 20 mg/kg intragastric, 6 weeks
Protocol: (1) Operation and Coronary artery ligation of Animal: 60 male SD rats, divided into two groups: 15 in sham operation group and 45 in operation group, were immobilized on their backs by anesthesia of urethane ip at the dose of 100 mg/kg. Electrocardiograph (ECG-6851C, made by Shanghai Photoelectrical & Electronic Medical Apparatus Co., Ltd.) was used to record II lead electrocardiogram. Tracheal intubation was performed and connected into an artificial respirator and thoracotomy was performed at the fourth intercostal space of left sternal border after the skin sterilization. With exposure of the heart, the ligation was conducted at 3-4 mm of the root of left anterior descending coronary artery. ECG was monitored during the whole process and the graph showing significant elevation and depression of ST segment as well as the elevated T-wave amplitude was viewed as the indexes for the success of coronary artery ligation. After the ligation, thorax was closed and the air was drawn out. Regular feeding was continued after the operation, and the intramuscular injection of Penicillin was performed to prevent infection in 1 week after the operation. Thoracotomy was performed in sham operation group without coronary artery ligation.
(2) Groups and administration: 5 weeks later, there were 11 rats survived in sham operation group, and 24 rats in operation group. […] Starting from the sixth week, drugs were administered 6 days per week, and continued for 6 weeks, but withdrawn on Sundays. The volume of the drug administered was 5 ml/kg.
(1) Evaluation of therapeutic effect: Therapeutic effect was evaluated at the 12th week after the operation. 30 min after the final administration, rats were immobilized on their backs and tracheal intubation was performed. Arteria Femoralis was separated or insertion of a catheter to record artery blood pressure. A cardiac catheter was inversely guided into left ventricular from right common carotid artery. Both catheters were connected with pressure sensor, and then the pressure signals were input into an electrophysiolograph Powerlab system 8s (ML785/8S, AD Instruments, made in Australia) after being amplified with carriers. Needle electrodes were subcutaneously inserted into four limbs to monitor the standard two lead ECG. A computer (chart4.12 software, ML785/8S, AD Instruments, made in Australia) was used to monitor and store data. Thirty min after the operation, heart rate (HR), blood pressure (BPm), left ventricular systolic pressure (LVSP), left ventricular diastolic pressure (LVDP), the maximal rate of left intraventricular pressure changes (+dp/dtmax), left ventricular end-diastolic pressure (LVEDP), ECG were observed. One hour later, animals were executed, and their left ventriculars were taken out. The left hearts were cut into slices of 5 mm in thickness, which were cleaned with normal saline and put into 0.025% nitroblue tetrazolium (N-BT, made by Swiss Fluka Chemistry Company) at 37° C. for staining. Normal myocardium was dyed into dark blue, and the myocardium in infarction area was not dyed, remaining still light-yellow. The infarction area was isolated from normal myocardium under an anatomic microscopy and the both weighed, separatively. The percentage (%) of the weight of infarct area to the weight of the whole was regarded as the index for measurement of the area of myocardial infarction.
Test results was expressed in x±s. […]

3,4′,5-trihydroxy-stilbene-3-β-D-glucoside [TSG]
+dp/dt max: 1389 ± 142^Δ Kpa/s
BP: 19.2 ± 1.8^Δ KPa
HR: 354 ± 45^Δ p/min
LVEDP: 0.82 ± 0.19^Δ KPa
LVSP: 19.8 ± 2.1^Δ KPa
